This is an account of results in US4772475A, “Controlled-release multiple units pharmaceutical formulation” (Yamanouchi Pharmaceutical Co., Ltd., priority 1985, dated 1988).

The subject of one series is α. The following applies: cited from earlier work.
The nature of another series: Solubility in water. The series is classed as physicochemical.

The structures appear in SMILES notation.

On to `CCOc1ccccc1OCCNC(C)Cc1ccc(OC)c(S(N)(=O)=O)c1.Cl` (centres unmarked) [YM-12617, 5-{2-[2-(o-ethoxyphenoxy)ethylamino]propyl}-2-methoxybenzenesulfonamide hydrochloride], for which the α-blocking action entry in the series with α was “shows an α-blocking action”. Further, in the series “Solubility in water”, the solubility – broadly, how much of the substance goes into solution per volume – lay within 3 to 5 mg/mL.
